Results as given in PMC12030355 (Pharmaceuticals, 2025).

Experiment: in vitro
Set-up: MTT cytotoxicity assay, absorbance 450 nm, normal cell line
Settings: human, wi-38 cells; read-out: Cytotoxicity IC50 uM WI38
Description: 3.2.3. […] The remaining substances and tools were from either Sigma or Invitrogen. Before performing the MTT experiment, cells were seeded on a 96-well plate at a density of 1.2–1.8 10,000 cells/well in a volume of 100 μL complete growth media + 100 μL of the test substance each well. Multiwell plates are an excellent choice for using the MTT method, which is used to track in vitro cytotoxicity. Using cells in the log phase of growth and keeping the ultimate cell density around 10^6 cells/cm^2 will produce the best results. Every test should include a blank with a full medium but no cells. Cultures should be moved from the incubator into a sterile workspace, such as a laminar flow hood. Each MTT [M-5655] vial should be reconstituted with 3 mL of medium or balanced salt solution devoid of phenol red and serum. 10% of the volume of the culture medium should be added to the reconstituted MTT solution. Incubate cultures again for 2–4 h, depending on the type of cell and the maximal cell density. […] After the incubation period, remove the cultures from the incubator and apply MTT Solubilization Solution [M-8910] in a quantity equal to the volume of the original culture media to dissolve the formazan crystals that formed. In a gyratory shaker, gentle blending will improve solubility. Trituration, or pipetting up and down, may occasionally be necessary to completely dissolve the MTT formazan crystals, especially in thick cultures at a wavelength of 450 nm, and measure the absorbance spectrophotometrically. The background absorbance of multiwell plates at 690 nm were subtracted from 450 nm data. A suitable plate 7. Incubate cultures at 37°C for 24 hrs. 8-After treatment of cells with the serial concentrations of the compound to be tested incubation is carried out for 48 h at 37 °C ,then the plates are to be examined under the inverted microscope and proceed for the MTT assay MTT – Cytotoxicity assay protocol The MTT method of monitoring in vitro cytotoxicity is well suited for use with multiwell plates. For best results, cells in the log phase of growth should be employed and final cell number should not exceed 10^6 cells/cm2. Each test should include a blank containing complete medium without cells. 1. Remove cultures from incubator into laminar flow hood or other sterile work area.

Structure (SMILES) | CC50 at 48 h
COc1cccc2c1C(=O)c1c(O)c3c(c(O)c1C2=O)C[C@@](O)(C(=O)CO)C[C@@H]3O[C@H]1C[C@H](N)[C@H](O)[C@H](C)O1 [Doxorubicin] | 14.1 µM
CCn1cc(C(=O)O)c(=O)c2cc(F)c(N3CCNCC3)cc21 [compound 1, norfloxacin] | 54.6 µM
CCn1cc(C(=O)O)c(=O)c2cc(F)c(N3CCN(C(=O)CC#N)CC3)cc21 [compound 6] | 34.1 µM
CCOC(=O)N1CCN(c2cc3c(cc2F)c(=O)c(C(=O)O)cn3CC)CC1 [compound 7, 7-(4-(Ethoxycarbonyl)piperazin-1-yl)-1-ethyl-6-fluoro-4-oxo-1,4-dihydroquinolin-3-carboxylic acid] | 47.9 µM
CCn1cc(-c2nc3ccccc3s2)c(=O)c2cc(F)c(N3CCNCC3)cc21 [compound 15, 3-(Benzo[d]thiazol-2-yl)-1-ethyl-6-fluoro-7-(piperazin-1-yl)quinolin-4(1H)-one] | 39.2 µM
CCn1cc(-c2nc3ccccc3s2)c(=O)c2cc(F)c(N3CCN(C(=O)CCl)CC3)cc21 [compound 16, 3-(Benzo[d]thiazol-2-yl)-7-(4-(2-chloroacetyl)piperazin-1-yl)-1-ethyl-6-fluoroquinolin-4(1H)-one] | 51.2 µM
